Source: patent US11780845B2 (Relay Therapeutics, Inc., priority 2019, dated 2023)

How the values were obtained:
FGFR2 = FGFR2 (Homo sapiens (Human), UniProt P21802); assay: Biochemical FGFR2 Caliper assay
SNU-16 = assay: Cell SNU-16 assay; type: cell-based; settings: Homo sapiens, SNU-16, SNU-16 cells

Chain of FGFR2 (P21802 22-821): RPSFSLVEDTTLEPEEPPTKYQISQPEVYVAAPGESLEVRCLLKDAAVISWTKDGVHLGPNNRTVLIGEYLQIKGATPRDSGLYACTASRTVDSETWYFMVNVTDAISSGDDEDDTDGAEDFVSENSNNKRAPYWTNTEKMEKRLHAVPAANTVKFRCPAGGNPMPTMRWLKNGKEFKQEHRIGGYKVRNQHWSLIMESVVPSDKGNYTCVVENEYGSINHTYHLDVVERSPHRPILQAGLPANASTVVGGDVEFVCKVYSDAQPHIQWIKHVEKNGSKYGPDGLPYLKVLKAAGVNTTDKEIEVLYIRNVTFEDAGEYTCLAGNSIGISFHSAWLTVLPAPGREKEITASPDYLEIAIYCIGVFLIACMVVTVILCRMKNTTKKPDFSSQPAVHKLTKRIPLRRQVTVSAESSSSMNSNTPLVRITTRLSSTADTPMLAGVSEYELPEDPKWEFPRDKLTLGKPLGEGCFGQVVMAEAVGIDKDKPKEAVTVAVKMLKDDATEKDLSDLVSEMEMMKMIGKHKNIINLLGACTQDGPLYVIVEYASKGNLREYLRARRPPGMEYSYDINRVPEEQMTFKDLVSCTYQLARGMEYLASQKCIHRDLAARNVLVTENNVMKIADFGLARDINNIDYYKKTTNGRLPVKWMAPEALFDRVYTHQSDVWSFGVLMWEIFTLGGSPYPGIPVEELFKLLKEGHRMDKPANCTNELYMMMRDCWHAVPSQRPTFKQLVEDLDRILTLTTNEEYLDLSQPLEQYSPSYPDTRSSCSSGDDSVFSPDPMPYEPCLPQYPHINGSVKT

## COC/C=C/c1cc(C)c(-c2c(-c3ccc(Oc4nccc(C)n4)c(F)c3)c3c(N)ncnc3n2C)cn1 [Example 1378]
FGFR2
  IC50: 1000 to 100000 nM
SNU-16
  IC50: 1000 to 100000 nM

## C#Cc1ncc2ccc(-c3c(-c4ccc(Oc5nccc(C)n5)c(F)c4)c4c(N)ncnc4n3C)cc2n1 [Example 1379]
FGFR2
  IC50: 100 to 250 nM
SNU-16
  IC50: ≤ 100 nM

## C#Cc1cc(C)c(-c2cn3ncnc(N)c3c2C2=CC[C@@H](C(=O)N3CCC[C@H]3C)CC2)cn1 [Example 1380]
FGFR2
  IC50: 250 to 1000 nM
SNU-16
  IC50: 250 to 1000 nM

## C#Cc1ncc(-c2c(-c3ccc(Oc4nccc(C)n4)c(F)c3)c3c(C)ncnc3n2C)cc1OC [Example 1381]
FGFR2
  IC50: 100 to 250 nM
SNU-16
  IC50: ≤ 100 nM

## COCC#Cc1cc(C)c(-c2c(C3=CC[C@H](C(=O)N4CCC[C@H]4C)CC3)c3c(N)ncnc3n2C)cn1 [Example 1382]
FGFR2
  IC50: < 100 nM
SNU-16
  IC50: ≤ 100 nM

## COCC#Cc1cc(C)c(-c2c(C3=CC[C@@H](C(=O)N4CCC[C@H]4C)CC3)c3c(N)ncnc3n2C)cn1 [Example 1383]
FGFR2
  IC50: 250 to 1000 nM
SNU-16
  IC50: 250 to 1000 nM

## C#Cc1cnc2ccc(-c3c(-c4ccc(Oc5nccc(C)n5)c(F)c4)c4c(N)ncnc4n3C)cc2n1 [Example 1384]
FGFR2
  IC50: < 100 nM
SNU-16
  IC50: 100 to 250 nM

## C#Cc1ncc2cc(-c3c(-c4ccc(Oc5nccc(C)n5)c(F)c4)c4c(N)ncnc4n3C)ccc2n1 [Example 1385]
FGFR2
  IC50: < 100 nM
SNU-16
  IC50: ≤ 100 nM

## COCC#Cc1cc(C)c(-c2c(-c3ccc(Oc4nccc(C)n4)cc3)c3c(N)ncnc3n2C)cn1 [Example 1386]
FGFR2
  IC50: < 100 nM
SNU-16
  IC50: ≤ 100 nM

## C#Cc1cc(C)c(-c2cn3ncnc(N)c3c2C2=CC[C@H](C(=O)N3CCC[C@H]3C)CC2)cn1 [Example 1387]
FGFR2
  IC50: 1000 to 100000 nM
SNU-16
  IC50: 1000 to 100000 nM

## C#Cc1nc2cc(-c3c(-c4ccc(Oc5nccc(C)n5)c(F)c4)c4c(N)ncnc4n3C)c(F)cc2n1C [Example 1388]
FGFR2
  IC50: < 100 nM
SNU-16
  IC50: ≤ 100 nM

## C=C(C)C(=O)Nc1ccc(-c2c(-c3ccc(-c4cccc(O)c4)c(C#N)c3)c3c(N)ncnc3n2C)cc1 [Example 1389]
FGFR2
  IC50: 1000 to 100000 nM
SNU-16
  IC50: 250 to 1000 nM

## C=C(C)C(=O)Nc1ccc(-c2c(-c3ccc4[nH]ncc4c3)c3c(N)ncnc3n2C)cc1 [Example 1390]
FGFR2
  IC50: 1000 to 100000 nM
SNU-16
  IC50: 1000 to 100000 nM

## C#Cc1cc2c(cn1)-c1c(-c3ccc(Oc4nccc(C)n4)cc3)c3c(N)ncnc3n1CCC2 [Example 1391]
FGFR2
  IC50: < 100 nM
SNU-16
  IC50: ≤ 100 nM

## C#Cc1cc(C)c(-c2c(C3=CC[C@@]4(CC3)Cc3ccc(C)nc3O4)c3c(C)ncnc3n2C)cn1 [Example 1392]
FGFR2
  IC50: 1000 to 100000 nM
SNU-16
  IC50: 1000 to 100000 nM

## C#Cc1cc(C)c(-c2c(C3=CC[C@@]4(CC3)Cc3ccc(C)nc3O4)c3c(N)ncnc3n2C)cn1 [Example 1393]
FGFR2
  IC50: 1000 to 100000 nM
SNU-16
  IC50: 1000 to 100000 nM

## C#Cc1cc(C)c(-c2c(C3=CC[C@@]4(CC3)Cc3ccc(C)nc3C4=O)c3c(N)ncnc3n2C)cn1 [Example 1394]
FGFR2
  IC50: 100 to 250 nM
SNU-16
  IC50: 100 to 250 nM

## C#Cc1nc2ccc(-c3c(-c4ccc(Oc5nccc(C)n5)c(F)c4)c4c(N)ncnc4n3C)cc2n1C [Example 1395]
FGFR2
  IC50: < 100 nM
SNU-16
  IC50: ≤ 100 nM

## C#Cc1cc(C)c(-c2c(C3=CC[C@]4(CC3)Cc3ccc(C)nc3O4)c3c(C)ncnc3n2C)cn1 [Example 1396]
FGFR2
  IC50: 250 to 1000 nM
SNU-16
  IC50: 1000 to 100000 nM

## C#Cc1ncc(-c2c(-c3ccc(Oc4nccc(C)n4)c(F)c3)c3c(C)ncnc3n2C)c(C)c1OC [Example 1397]
FGFR2
  IC50: 250 to 1000 nM
SNU-16
  IC50: ≤ 100 nM

## C#Cc1cc(C)c(-c2c(C3=CC[C@]4(CC3)Cc3ccc(C)nc3C4=O)c3c(N)ncnc3n2C)cn1 [Example 1398]
FGFR2
  IC50: < 100 nM
SNU-16
  IC50: ≤ 100 nM

## C#Cc1cc(C)c(-c2c(C3=CC[C@]4(CC3)Cc3ccc(C)nc3O4)c3c(N)ncnc3n2C)cn1 [Example 1399]
FGFR2
  IC50: < 100 nM
SNU-16
  IC50: 100 to 250 nM

## C#Cc1cc(C)c(-c2c(-c3ccc(Oc4nccc(C)n4)c(F)c3)c3c(C)ncnc3n2C)c(F)n1 [Example 1400]
FGFR2
  IC50: < 100 nM
SNU-16
  IC50: ≤ 100 nM

## C#Cc1cc(C)c(-c2c(-c3ccc(Oc4nccc(C)n4)c(F)c3)c3c(Cl)ncnc3n2C)c(F)n1 [Example 1401]
FGFR2
  IC50: < 100 nM
SNU-16
  IC50: ≤ 100 nM

## C#Cc1cc2cc(-c3c(-c4ccc(Oc5nccc(C)n5)c(F)c4)c4c(N)ncnc4n3C)ccc2cn1 [Example 1402]
FGFR2
  IC50: 1000 to 100000 nM
SNU-16
  IC50: 1000 to 100000 nM

## C#Cc1cc(OC)c(-c2c(-c3ccc(Oc4nccc(C)n4)c(F)c3)c3c(Cl)ncnc3n2C)cn1 [Example 1403]
FGFR2
  IC50: < 100 nM
SNU-16
  IC50: ≤ 100 nM

## C#Cc1cc2ccc(-c3c(-c4ccc(Oc5nccc(C)n5)c(F)c4)c4c(N)ncnc4n3C)cc2cn1 [Example 1404]
FGFR2
  IC50: 250 to 1000 nM
SNU-16
  IC50: 250 to 1000 nM

## C#Cc1ccc2cc(-c3c(-c4ccc(Oc5nccc(C)n5)c(F)c4)c4c(N)ncnc4n3C)ccc2n1 [Example 1405]
FGFR2
  IC50: < 100 nM
SNU-16
  IC50: ≤ 100 nM

## C#Cc1cc(C)c(-c2c(-c3ccc(Oc4nccc(C)n4)c(F)c3)c3c(C)ncnc3n2C)c(C)n1 [Example 1406]
FGFR2
  IC50: < 100 nM
SNU-16
  IC50: ≤ 100 nM

## C=C(C)c1ccc(-c2c(-c3ccc4nn[nH]c4c3)c3c(N)ncnc3n2C)cn1 [Example 1407]
FGFR2
  IC50: 250 to 1000 nM
SNU-16
  IC50: 250 to 1000 nM
